Where two headings read alike, the source gives them in different places.
Tests used:
[1] = biological target: T1, glucagon receptor (GCGR) overexpressed CHO-K1 cells or human primary hepatocytes (Homo sapiens, UniProt P47871); assay: Glucagon cAMP inhibition assay (Cisbio cAMP Dynamic 2 HTRF); assay type: cell-based
T1 construct: expressed in transfected cells; host or cells: GCGR overexpressed CHO-K1 cells or human primary hepatocytes (endogenous receptor)
Experimental: Glucagon cAMP Inhibition Assay
Downstream secondary messenger cAMP induced by glucagon was detected by Cisbio cAMP Dynamic 2 kit. Testing compounds were each prepared as a dimethyl sulfoxide (DMSO) solution at the concentration of 10 mM. To evaluate the potency of compounds in inhibiting the cAMP production, glucagon receptor (GCGR) overexpressed CHO-K1 cells or human primary hepatocytes were treated with compounds with a serial dilution. The cells were re-suspended in Hank's Balanced Salt solution (HBSS) contained 0.1% (w/v) bovine serum albumin and 800 nM 3-isobutyl-1-methylxanthine (IBMX) and seeded into low volume, 384 wells white plate. The diluted compounds were then added into the plate for 30 minutes pre-incubation where the final DMSO concentration was 1%. The cells were stimulated with glucagon at the concentration equaled to EC50 (an indicium of the concentration of a drug that gives half-maximal response) for 30 minutes at room temperature. After incubation, lysis buffer contain cAMP antibody and fluorescence acceptor were added into each well for additional 60 minutes incubation. Results were recorded by Molecular Devices SpectraMax Paradigm with the HTRF Detection Cartridges and the IC50 value of each compound in inhibiting the cAMP production was calculated with non-linear regression based on the amount of cAMP production.

glucagon receptor (GCGR) = biological target: T2, glucagon receptor (GCGR) (Homo sapiens, UniProt P47871); assay: I125-glucagon binding assay (competition, GCGR membrane fractions)
T2 construct: expressed in transfected cells; host or cells: CHO-K1 cells overexpressing GCGR (membrane fractions)
T2 sequence (P47871 26-477): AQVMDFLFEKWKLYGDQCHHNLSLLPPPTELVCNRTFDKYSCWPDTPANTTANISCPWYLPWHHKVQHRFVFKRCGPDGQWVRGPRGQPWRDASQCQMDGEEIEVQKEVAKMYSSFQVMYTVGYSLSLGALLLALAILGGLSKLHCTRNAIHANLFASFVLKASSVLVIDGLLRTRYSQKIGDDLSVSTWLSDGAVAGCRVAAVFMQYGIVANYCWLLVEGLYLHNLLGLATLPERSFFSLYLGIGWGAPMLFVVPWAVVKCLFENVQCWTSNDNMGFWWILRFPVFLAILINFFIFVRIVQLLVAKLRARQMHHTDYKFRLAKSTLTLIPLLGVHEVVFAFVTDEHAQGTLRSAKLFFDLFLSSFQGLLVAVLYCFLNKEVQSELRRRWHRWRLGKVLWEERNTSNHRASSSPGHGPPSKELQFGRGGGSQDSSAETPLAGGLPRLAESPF
Experimental: I^125-Glucagon Binding Assay
The binding affinity of each compound was evaluated by a competition assay with I^125-glucagon. GCGR membrane fractions were obtained from GCGR overexpressed CHO-K1 cells as a stock of 1 mg/ml concentration. To evaluate the IC50 of compounds binding to GCGR, GCGR membrane fractions were treated with compounds with a serial dilution. The membrane fractions were diluted to 7.5 microgram per well in 70 microliter assay buffer contained 50 mM Tris pH 7.4 and 0.5% (w/v) bovine serum albumin and added into 96 wells plate. The membrane fractions were then mixed with 10 microliter diluted compounds. After 5 minutes pre-incubation, 20 microliter I^125 labeled glucagon (Perkin Elmer) was added into each well at the final concentration of 0.0625 nM. The assay mixtures were incubated at 25° C. for 30 minutes and then transferred onto the Millipore MultiScreen GF/B Plate coated with 0.5% (w/v) Polyethyleneimine. The filter plate was washed with wash buffer contained 50 mM Tris pH 7.4 for 2 times, 300 microliter each time. The residual isotope was detected by Hidex CHAMELEON V micro-beta counter and the IC50 value of each compound binding to GCGR was calculated with non-linear regression.

[2] = inhibition of glucagon (EC50 concentration) induced cAMP production
[3] = competition with I125-glucagon 0.0625 nM, membrane fractions of GCGR overexpressed CHO-K1 cells

T1 sequence (P47871 26-477): as above

IC50 cAMP [1] | IC50 (glucagon receptor (GCGR)) | IC50 cAMP [1, 2] | IC50 (glucagon receptor (GCGR); [3]) | Structure (SMILES) | also measured
0.214 µM | 1.21 µM |  |  | O=C(O)CCNC(=O)c1ccc(N[C@H](Cc2ccc(-c3cc4ccccc4o3)cc2)C(=O)Nc2cc(F)cc(F)c2)cc1 [Compound 24-24, (R)-3-(4-((3-(4-(benzofuran-2-yl)phenyl)-1-((3,5-difluorophenyl)amino)-1-oxopropan-2-yl)amino)benzamido)propanoic Acid] | 
0.2599 µM | 0.283 µM |  |  | CCCC[C@@H](Cc1ccc(-c2cc3ccccc3o2)cc1)Nc1ccc(C(=O)NCCC(=O)O)cc1 [Compound 19-11, (S)-3-(4-((1-(4-(benzofuran-2-yl)phenyl)hexan-2-yl)amino)benzamido)propanoic Acid] | 
0.9168 µM | 0.688 µM |  |  | CC(C)COC[C@@H](Cc1ccc(-c2ccc(C(F)(F)F)cc2)cc1)Nc1ccc(C(=O)NCCC(=O)O)cc1 [Compound 19-18] | 
>30 µM | > 30 µM |  |  | CC[C@H](C)[C@@H](COc1nnc(-c2ccc(C(F)(F)F)cc2F)o1)Nc1ccc(C(=O)NCCC(=O)OC)cc1 [Compound 22-20, Methyl 3-(4-(((2S,3S)-1-((5-(2-fluoro-4-(trifluoromethyl)phenyl)-1,3,4-oxadiazol-2-yl)oxy)-3-methylpentan-2-yl)amino)benzamido)propanoate] | 
>30 µM | 4.86 µM |  |  | Cc1cc(C)c(-c2ccc(C[C@H](Nc3ccc(C(=O)NCCC(=O)O)cc3)c3nnc(-c4ccc(C(C)(C)C)cc4)o3)cc2)c(C)c1 [Compound 20-5, (S)-3-(4-((1-(5-(4-(tert-butyl)phenyl)-1,3,4-oxadiazol-2-yl)-2-(2′,4′,6′-trimethyl-[1,1′-biphenyl]-4-yl)ethyl)amino)benzamido)propanoic Acid] | 
1.513 µM | 1.28 µM |  |  | CCCOC[C@H](Cc1ccc(-c2cccc(OC(F)(F)F)c2)cc1)Nc1ccc(C(=O)NCCC(=O)O)cc1 [Compound 19-25, (S)-3-(4-((1-propoxy-3-(3′-(trifluoromethoxy)-[1,1′-biphenyl]-4-yl)propan-2-yl)amino)benzamido)propanoic Acid] | 

The remaining lines, values behind:

Structure (SMILES) | IC50 cAMP [1] | IC50 (glucagon receptor (GCGR)) | IC50 cAMP [1, 2] | IC50 (glucagon receptor (GCGR); [3]) | also measured
CC(C)[C@@H](COc1ccc(-c2nc3ccccc3s2)cn1)Nc1ccc(C(=O)NCCC(=O)O)cc1 [Compound 15-37, (S)-3-(4-((1-((5-(benzo[d]thiazol-2-yl)pyridin-2-yl)oxy)-3-methylbutan-2-yl)amino)benzamido)propanoic Acid] | 1.609 µM | 0.468 µM |  |  | 
CC(C)COC[C@H](Cc1ccc(-c2ccc(C(F)(F)F)cc2)cc1)Nc1ccc(C(=O)NCCC(=O)O)cc1 [Compound 19-34, (S)-3-(4-((1-isobutoxy-3-(4′-(trifluoromethyl)-[1,1′-biphenyl]-4-yl)propan-2-yl)amino)benzamido)propanoic Acid] | 0.487 µM | 0.38 µM |  |  | 
COc1cc(OC[C@@H](Nc2ccc(C(=O)NCCC(=O)O)cn2)C(C)C)ccc1-c1cc2ccccc2o1 [Compound 14-1, (S)-3-(6-((1-(4-(benzofuran-2-yl)-3-methoxyphenoxy)-3-methylbutan-2-yl)amino)nicotinamido)propanoic Acid] |  |  | 1.232 µM | 0.75 µM | 
Cc1nc(OC[C@H](CC(C)C)Nc2ccc(C(=O)NCCC(=O)O)cc2)ccc1-c1ccc(Cl)cc1Cl [Compound 18-8, (S)-3-(4-((1-((5-(2,4-dichlorophenyl)-6-methylpyridin-2-yl)oxy)-4-methylpentan-2-yl)amino)benzamido)propanoic Acid] | 0.1225 µM | 0.049 µM |  |  | 
CCCC[C@@H](COc1ccc(-c2ccc(C(F)(F)F)cc2Cl)cc1)Nc1ccc(C(=O)NCCC(=O)O)cc1 [Compound 1-19, (S)-3-(4-((1-((2′-chloro-4′-(trifluoromethyl)-[1,1′-biphenyl]-4-yl)oxy)hexan-2-yl)amino)benzamido)propanoic Acid] |  |  | 0.093 µM | 0.011 µM | 
CC(C)C[C@@H](COc1ccc(-c2ccc(C(F)(F)F)cc2F)cn1)Nc1ccc(C(=O)NCCC(=O)O)cc1 [Compound 15-16, (S)-3-(4-((1-((5-(2-fluoro-4-(trifluoromethyl)phenyl)pyridin-2-yl)oxy)-4-methylpentan-2-yl)amino)benzamido)propanoic Acid] | 0.999 µM | 0.669 µM |  |  | 
O=C(NCCS(=O)(=O)O)c1ccc(N[C@H](COc2ccc(-c3cc4ccccc4o3)cn2)c2ccc(-c3ccc(C(F)(F)F)cc3)cc2)cc1 [Compound 15-28, (S)-2-(4-((2-((5-(benzofuran-2-yl)pyridin-2-yl)oxy)-1-(4′-(trifluoromethyl)-[1,1′-biphenyl]-4-yl)ethyl)amino)benzamido)ethane-1-sulfonic Acid] | 11.647 µM | 0.1 µM |  |  | 
CCOC(=O)CCNC(=O)c1ccc(N[C@H](COc2ccc(-c3nc4ccccc4s3)cc2)C(C)C)cc1 [Compound 1-30] |  |  | 1.214 µM | 7.63 µM | 
CCCC[C@@H](COc1ccc(-c2ccc(C(F)(F)F)cc2)c(Cl)c1)Nc1ccc(C(=O)NCc2nnn[nH]2)cc1 [Compound 3-17, (S)—N-((1H-tetrazol-5-yl)methyl)-4-((1-((2-chloro-4′-(trifluoromethyl)-[1,1′-biphenyl]-4-yl)oxy)hexan-2-yl)amino)benzamide] |  |  | 0.105 µM | 0.111 µM | 
O=C(NCCS(=O)(=O)O)c1ccc(N[C@@H](Cc2ccccc2)C(=O)Nc2ccc(-c3cc4ccccc4o3)cc2)cc1 [Compound 23-24, (S)-2-(4-((1-((4-(benzofuran-2-yl)phenyl)amino)-1-oxo-3-phenylpropan-2-yl)amino)benzamido)ethane-1-sulfonic Acid] |  |  |  |  | IC50 cAMP ([1]; uM): >10 µM; IC50 (glucagon receptor (GCGR); uM): > 10 µM
CC(C)[C@@H](COc1ccc(-c2ccc(C(F)(F)F)nn2)cc1)Nc1ccc(C(=O)NCCC(=O)O)cc1 [Compound 1-29, (S)-3-(4-((3-methyl-1-(4-(6-(trifluoromethyl)pyridazin-3-yl)phenoxy)butan-2-yl)amino)benzamido)propanoic Acid] |  |  | >30 µM | 2.79 µM | 
CC(C)COC[C@H](Cc1ccc(-c2cccc(C(F)(F)F)c2)cc1)Nc1ccc(C(=O)NCCC(=O)O)cc1 [Compound 19-28, (S)-3-(4-((1-isobutoxy-3-(3′-(trifluoromethyl)-[1,1′-biphenyl]-4-yl)propan-2-yl)amino)benzamido)propanoic Acid] | 0.726 µM | 0.872 µM |  |  | 
CC(C)(C)c1nnc(-c2ccc(OC[C@@H](Nc3ccc(C(=O)NCCC(=O)O)cc3)c3ccc(-c4ccc(Cl)cc4Cl)cc3)nc2)o1 [Compound 15-34, (S)-3-(4-((2-((5-(5-(tert-butyl)-1,3,4-oxadiazol-2-yl)pyridin-2-yl)oxy)-1-(2′,4′-dichloro-[1,1′-biphenyl]-4-yl)ethyl)amino)benzamido)propanoic Acid] | 4.558 µM | 3 µM |  |  | 
CC(C)[C@@H](COc1ccc(-c2cc3ccccc3o2)c(F)c1)Nc1ccc(C(=O)NCCC(=O)O)cc1 [Compound 8-3, (S)-3-(4-((1-(4-(benzofuran-2-yl)-3-fluorophenoxy)-3-methylbutan-2-yl)amino)benzamido)propanoic Acid] |  |  | 0.0844 µM | 0.083 µM | 
CCCC[C@@H](COc1ccc(-c2ccc(C(C)(C)C)cc2)cc1)Nc1ccc(C(=O)NCCC(=O)O)cc1 [Compound 1-11, (S)-3-(4-((1-((4′-(tert-butyl)-[1,1′-biphenyl]-4-yl)oxy)hexan-2-yl)amino)benzamido)propanoic Acid] |  |  | 0.3203 µM | 0.15 µM | 
O=C(O)CCNC(=O)c1ccc(N[C@H](COc2ccc(-c3cc4ccccc4o3)cn2)c2ccccc2)cc1 [Compound 15-5, (S)-3-(4-((2-((5-(benzofuran-2-yl)pyridin-2-yl)oxy)-1-phenylethyl)amino)benzamido)propanoic Acid] | 2.067 µM | 0.706 µM |  |  | 
CCCC[C@@H](COc1ccc(-c2cc3ccccc3o2)c(Cl)c1)Nc1ccc(C(=O)NCc2nnn[nH]2)cc1 [Compound 3-11, (S)—N-((1H-tetrazol-5-yl)methyl)-4-((1-(4-(benzofuran-2-yl)-3-chlorophenoxy)hexan-2-yl)amino)benzamide] |  |  | 0.6728 µM | 0.149 µM | 
